By IC50 is commonly meant the point on the concentration scale where inhibition reaches its midpoint.

The test system of series [1] is PD-L1-expressing HT29 colorectal adenocarcinoma cells, primary stromal fibroblasts and PBMCs. As to the kind of experiment: Tumour microenvironment (TME) model system, study KRS018-01-b (DiscoverX). The series is classed as cell-based. To be noted: 2.5 to 10 μM; SAg stimulation 48 h; dose-dependent. Here is the method: Test compounds dissolved in DMSO were profiled in a commercially-available tumour microenvironment (TME) model system consisting of PD-L1-expressing HT29 colorectal adenocarcinoma cells, primary stromal fibroblasts and PBMCs in which immune cel responses are suppressed by the presence of the cancer cells. Co-cultured cells were exposed to 2.5, 5, 10, 20 μM of test compound or DMSO as a control and stimulated with SAg for 48 h. The activity profile in the co-culture system was determined using ELISA endpoint assays to detect modulation of protein markers relevant to immune tolerance, inflammation, angiogenesis and matrix remodelling, and sulforhodamine B (SRB) and alamar blue assays to measure the viability of adherent colorectal adenocarcinoma cells and fibroblasts, and PBMCs, respectively.

For another series, the system named is RPMI8226 tumours. Kind of series: Tumour growth delay study in male SCID mice bearing RPMI8226 tumours. It is filed as in vivo.
The next series has as its system acetylated tubulin. As to the kind of experiment: Western blot analysis of tumour tissue. It is filed as in vivo, male SCID mice. The following applies: tumour tissue removed from treated animals.
Series [2] can be described thus: Clinical signs and weight in the tumour growth delay study.
Source text: (§1) Male SCID mice were subcutaneously implanted with RPM18226 multiple myeloma cells. Once tumours were established (volume of ˜130 mm) treatment was commenced.
(§2) Animals were housed in IVC cages (5 per cage) with individual mice identified by tail mark. All animals were allowed free access to a standard certified commercial diet and sanitised water during the study.
(§3) RPMI cells (1×10^7 in matrigel) were implanted subcutaneously into the rear dorsum of male SCID mice using a 25-gauge needle. When tumours were 100-150 mm^3 animals were randomly assigned to treatment groups.
The next series deals with T1, Human HDAC1 (Homo sapiens, UniProt Q13547).
T1 construct: full length with C-terminal His-tag and C-terminal FLAG-tag; His-tag (C); FLAG-tag (C); made in house
Kind of series: HDAC biochemical assay, acetylated AMC-labeled peptide substrate. The following applies: read-out: IC50 (nM) HDAC 1.

For a further series, the target named is T2, Recombinant human HDAC6 (Homo sapiens, UniProt Q9UBN7).
T2 construct: full length, MW=159 kDa; GST (N); made in house; host or cells: Sf9 insect cells (baculovirus)
T2 sequence (Q9UBN7 1-1215): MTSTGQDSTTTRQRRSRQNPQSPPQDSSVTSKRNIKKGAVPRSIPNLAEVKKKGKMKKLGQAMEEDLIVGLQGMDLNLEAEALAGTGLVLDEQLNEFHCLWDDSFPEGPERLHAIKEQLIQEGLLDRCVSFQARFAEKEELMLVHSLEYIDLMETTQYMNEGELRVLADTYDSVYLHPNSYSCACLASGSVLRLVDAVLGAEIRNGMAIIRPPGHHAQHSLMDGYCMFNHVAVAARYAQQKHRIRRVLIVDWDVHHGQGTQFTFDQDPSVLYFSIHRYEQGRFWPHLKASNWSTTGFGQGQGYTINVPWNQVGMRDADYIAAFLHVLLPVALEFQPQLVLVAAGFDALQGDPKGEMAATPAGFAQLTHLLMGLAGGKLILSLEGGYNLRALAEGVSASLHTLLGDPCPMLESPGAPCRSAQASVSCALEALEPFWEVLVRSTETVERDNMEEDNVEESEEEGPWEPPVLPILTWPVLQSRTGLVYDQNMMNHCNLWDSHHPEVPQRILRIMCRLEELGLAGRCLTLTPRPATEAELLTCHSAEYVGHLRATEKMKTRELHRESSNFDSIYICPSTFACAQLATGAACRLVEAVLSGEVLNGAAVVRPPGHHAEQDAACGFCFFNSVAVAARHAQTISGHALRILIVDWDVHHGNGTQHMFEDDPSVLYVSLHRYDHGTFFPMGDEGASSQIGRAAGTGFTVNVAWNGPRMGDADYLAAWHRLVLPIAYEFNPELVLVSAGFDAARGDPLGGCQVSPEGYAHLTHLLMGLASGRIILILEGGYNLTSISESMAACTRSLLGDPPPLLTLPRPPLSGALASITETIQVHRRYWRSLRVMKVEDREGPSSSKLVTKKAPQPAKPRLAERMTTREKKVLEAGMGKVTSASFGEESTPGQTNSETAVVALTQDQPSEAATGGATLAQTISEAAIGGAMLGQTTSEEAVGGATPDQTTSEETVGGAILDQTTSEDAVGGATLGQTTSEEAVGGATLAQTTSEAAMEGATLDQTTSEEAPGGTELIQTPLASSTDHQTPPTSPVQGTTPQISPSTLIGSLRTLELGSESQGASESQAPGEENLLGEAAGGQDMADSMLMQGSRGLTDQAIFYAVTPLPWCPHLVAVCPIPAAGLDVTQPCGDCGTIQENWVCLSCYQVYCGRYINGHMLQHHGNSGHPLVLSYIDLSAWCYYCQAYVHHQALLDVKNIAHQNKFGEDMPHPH
The description is as above. To be noted: read-out: IC50 (nM) HDAC 6.

Where [3] appears, read: Group 2: Bortezomib 0.5 mg/kg i.v. twice weekly.

T1 sequence (Q13547 whole entry): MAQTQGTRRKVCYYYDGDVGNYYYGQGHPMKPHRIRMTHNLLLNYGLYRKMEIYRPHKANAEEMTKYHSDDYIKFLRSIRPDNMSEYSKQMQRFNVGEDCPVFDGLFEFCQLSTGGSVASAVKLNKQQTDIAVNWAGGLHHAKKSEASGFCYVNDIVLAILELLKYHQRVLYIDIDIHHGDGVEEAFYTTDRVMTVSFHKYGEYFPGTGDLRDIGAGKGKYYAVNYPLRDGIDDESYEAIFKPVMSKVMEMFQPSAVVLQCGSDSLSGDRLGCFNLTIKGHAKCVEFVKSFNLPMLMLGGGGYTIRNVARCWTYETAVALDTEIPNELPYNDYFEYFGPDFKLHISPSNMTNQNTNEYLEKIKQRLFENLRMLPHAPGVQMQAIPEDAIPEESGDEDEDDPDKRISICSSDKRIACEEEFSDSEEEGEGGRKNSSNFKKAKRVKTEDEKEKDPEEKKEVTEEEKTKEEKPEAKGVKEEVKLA
Procedure for Human HDAC1: Activity against all zinc-dependent HDACs 1 to 11 was assessed by using an acetylated AMC-labeled peptide substrate. […] All assays were based on the AMC-labeled substrate and developer combination.
(§4) The protocol involved a two-step reaction: first, the substrate with the acetylated lysine side chain is incubated with a sample containing HDAC activity, to produce the deacetylated products, which are then digested in the second step by the addition of developer to produce the fluorescent signal proportional to the amount of deacetylated substrates.
Human HDAC1 (GenBank Accession No. NM_004964), full length with C-terminal His-tag and C-terminal FLAG-tag, MW=56 kDa, expressed in baculovirus expression system.
(§5) Before use, 1 mg/mL BSA and DMSO are added.
Incubate for 2 hours at 30° C.
HDAC1: 0.3 ng/ul HDAC1 and 50 μM HDAC substrate are in the reaction buffer with 1% DMSO final. Incubate for 1 hour at 30° C.
(§6) Stage 1: Deacetylation of substrate by incubation of HDAC enzymes with compounds
(§7) Stage 2: Development by addition of Developer to digest the deacetylated substrate, and generate the fluorescent color; Detection: 360/460 Ex/Em
Source text for RPMI8226 tumours: as §1, §2, §3
Procedure for Recombinant human HDAC6: Activity against all zinc-dependent HDACs 1 to 11 was assessed by using an acetylated AMC-labeled peptide substrate. The substrate RHKK(Ac)AMC was used for HDAC1, 2, 3, 6, 10 and 11; for HDAC8, the substrate used was RHKAcKAc. […] All assays were based on the AMC-labeled substrate and developer combination.
as §4
Recombinant human HDAC6 (GenBank Accession No. BC069243), full length, MW=159 kDa, was expressed by baculovirus in Sf9 insect cells using an N-terminal GST tag.
as §5
Incubate for 2 hours at 30° C.
HDAC6: 0.3 ng/ul HDAC6 and 50 μM HDAC substrate are in the reaction buffer with 1% DMSO final. Incubate for 1 hours at 30° C.
as §6, §7

In the case of `O=C(NO)c1ccc(CN(c2cnccn2)c2cnccn2)cc1` [Example GG, 4-{[Bis(pyrazin-2-yl)amino]methyl}-N-hydroxybenzamide], the “levels of secreted granzyme-B, IFNγ, IL-10, IL-17A, IL-2, IL-6 and TNFα” value in series [1] was “increased”. Further, the control of tumour result in the series on RPMI8226 tumours (Group 4 and 5 (with bortezomib), after 8 days of treatment) is “significant control of tumour”. In addition, the “expression of acetylated tubulin in tumour tissue” value in the series with acetylated tubulin is “increased expression”. In series [2] (bortezomib combinations), the “weight change during the study” value was “no significant weight change”.

On to `CC(C)C[C@H](NC(=O)[C@H](Cc1ccccc1)NC(=O)c1cnccn1)B(O)O` [Bortezomib], for which, in the series on RPMI8226 tumours (setting [3]), the “% T/C value versus vehicle” value is on record as 67.8% and the Mean tumour volume, Group mean at day 19 worked out at 984 mm³. Besides, in series [2] (setting [3]), the “Group mean at day 26 (weight, clinical signs)” value is on record as 98.5.

On to `CNc1cc(-c2ccnc(N(Cc3ccc(C(=O)NO)cc3)c3cnccn3)c2)ccn1` [Example TT, N-hydroxy-4-({[2′-(methylamino)-[4,4′-bipyridine]-2-yl](pyrazin-2-yl)amino}methyl)benzamide], for which the IC50 at Human HDAC1 is 1000 to 10000 nM; on Recombinant human HDAC6 it was at most 500 nM.

Turning to `O=C(NO)c1ccc(CN(c2cnccn2)c2cc(-c3ccncc3)ccn2)cc1` [Example UU, 4-[({[4,4′-bipyridine]-2-yl}(pyrazin-2-yl)amino)methyl]-N-hydroxybenzamide], the IC50 at Human HDAC1 is 1000 to 10000 nM; on Recombinant human HDAC6 it was at most 500 nM.

These data come from patent US20200316062A1, “COMBINATIONS COMPRISING HISTONE DEACETYLASE INHIBITORS” (Karus Therapeutics Limited, priority 2016, published 2020).
